# Laboratory results from US20250179057A1, “MEK IMMUNE ONCOLOGY INHIBITORS AND THERAPEUTIC USES THEREOF” (Immuneering Corporation, priority 2022, published 2025).
# Read-outs that look alike come from different tables or passages of the source.
# Columns and labels:
# [1] = tested on: phospho-ERK in A549 (KRAS G12S) cells; assay: Cell-based pERK (pERK:tERK) in A549 cells; conditions: for activity at 0.01 µM: Homo sapiens, A549, 2 h, read-out: A549-pERK (10 nM, 2 h); for A549-pERK (10 nM, 2 h): phospho- to total protein ratio normalized to DMSO control (Table 9)
# In short: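 A549 cells in 6-well plates were treated with compound at a predetermined concentration for 2 hours at 37 °C. Lysates were then normalised by Bradford protein assay to 1 mg/mL for pERK. Phospho-ERK and total ERK were detected by Western blot with IRDye secondary antibodies and quantified by LI-COR Odyssey imaging.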
# PAMPA (pH 7.4) = assay type: in vitro ADME; conditions: PAMPA; pH = 7.4 (Table 14)
# [2] = Kinetic solubility (PBS pH 7.4; 4 hr); assay type: physicochemical; conditions: free base (Table 19), read-out: Kinetic Solubility
# Protocol: The plates were shaken for 4 h at room temperature in an Eppendorf Thermomixer. After incubation, the plates were centrifuged for 20 minutes at 4680 rpm. From the supernatant, 150 μL was transferred to a new 96 well plate and 50 μL DMSO was added to ensure continued dissolution. Samples were measured on LC-UV at injection volumes of 1 and 8 μL. Peak areas were determined and compared to peak areas obtained using calibration curves of the test compounds in DMSO.
# [3] = Mouse pharmacokinetics (oral cassette dosing), plasma; assay type: in vivo; conditions: BALB/c immunocompetent mice, 5 mg/kg p.o.
# Protocol: Female mice (BALC/c) received a single dose (3 mice/treatment) of vehicle (10% 1N HCl:90% [20% […]) and at 0.5, 1, 2, 4, 8, 12 and 24-hour post dose humanely euthanized.
# Blood was obtained through cardiac puncture into K+EDTA tubes, mixed by inversion and centrifuged to obtain the plasma. Blood will be kept on ice or at approximately 4° C. prior. Centrifugation will take place within 30 minutes of blood collection affording plasma samples. Plasma samples will be frozen as soon as possible after centrifugation and stored at −80° C. until analysis. All samples will be analysed by means of LC-MS/MS. Method development for bioanalysis will be performed by pharmacokinetics Department of Crown Bioscience (Taicang) Inc. using LC-MS/MS analysis (using Waters HSS T3 2.1×50 mm (1.8 um) LC column, and an API-4000 Electrospray MS unit). The results of a kinetic solubility (free base) study are represented in Table 19.
# [4] = tested on: phospho-MEK in A549 cells; assay: Cell-based pMEK (pMEK:tMEK, CRAF bypass) in A549 cells; conditions: 2 h; for A549-pMEK 100 nM, 2 h: normalized to DMSO control (Table 13); for A549-CRAF BP 100 nM, 2 h: pMEK to total MEK normalized to DMSO control
# Protocol: Materials and Methods: A549 or A375 cells were seeded in 6-well plates at an appropriate seeding density on day 0. On day 2 or 3, after checking the health and confluency of cells, the media was aspirated and replaced with 1 mL media containing a predetermined concentration of compound and incubated for 2 hours. After 2 hours, the media was aspirated, and the cells washed 2 times with cold PBS. Cells were lysed on ice, with 50 uL 1×CST lysis buffer +1 mM PMSF for 5 minutes. After 5 minutes, cells were removed using a scraper and transferred to cold 1.5 mL tubes, and centrifuged for 10 min, 4° C., 14,000×g. Supernatant was gently removed and snap frozen in liquid nitrogen. Protein concentration of the lysate was determined using Bradford Reagent (analyzed using SpectraMax M2E) and diluted to 1 mg/mL or pERK or 1.5 mg/mL for pMEK analysis. […] All dilutions were in Milk-free antibody diluent.
# (§1) A549 or […] cells were treated in duplicate for two hours with compounds at varying concentrations. After two hours, the cells were lysed, snap frozen, and stored at −80° C. After storage, the lysate was quantified with the Bradford assay. Before the lysates were prepared to run on the Jess, the lysates were diluted to 1 mg/mL for pERK analysis and 1.5 mg/mL pMEK analysis using quantitative Western blotting. ERK and MEK phosphorylation levels were estimated by taking the ratio of phospho-protein to total protein and normalizing to the DMSO control.
# as §1
# CYP2C9 = CYP2C9 (Homo sapiens, UniProt P11712); assay: CYP450 panel inhibition in human liver microsomes, 2C9 (diclofenac)
# Source text: The quenched samples were stored refrigerated.
# [5] = PBS buffer, pH 7.4, aqueous buffer, kinetic from dmso stock
# [6] = female, mouse, read-out: AUC0-t
# Sequence of CYP2C9 (P11712 whole entry): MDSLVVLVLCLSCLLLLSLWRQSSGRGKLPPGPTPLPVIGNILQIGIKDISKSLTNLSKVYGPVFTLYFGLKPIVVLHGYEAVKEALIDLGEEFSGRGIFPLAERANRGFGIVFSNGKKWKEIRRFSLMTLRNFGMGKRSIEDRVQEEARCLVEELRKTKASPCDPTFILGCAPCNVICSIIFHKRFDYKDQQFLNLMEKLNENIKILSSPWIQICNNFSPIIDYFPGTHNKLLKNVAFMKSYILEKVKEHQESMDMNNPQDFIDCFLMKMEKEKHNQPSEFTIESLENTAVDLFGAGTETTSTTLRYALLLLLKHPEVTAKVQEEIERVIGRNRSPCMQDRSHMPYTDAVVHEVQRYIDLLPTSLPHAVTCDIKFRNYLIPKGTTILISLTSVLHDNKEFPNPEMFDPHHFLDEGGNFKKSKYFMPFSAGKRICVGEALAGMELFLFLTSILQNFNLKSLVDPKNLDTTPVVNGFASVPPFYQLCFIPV
smiles,measurement,setting,value
CCS(=O)(=O)Nc1cccc(Cc2c(CN(C)CC(F)F)c3ccc(OC(=O)N(C)C)cc3oc2=O)c1F [Compound 243],activity at 0.01 µM,[1],86.7%
same,"Papp at 4 h, 50 μM",PAMPA (pH 7.4),48 ×10⁻⁶ cm/s
"CN(C)C(=O)Oc1cc2oc(=O)c(Cc3cccc(NS(=O)(=O)CC(F)(F)F)c3F)c(CN3CCNCC3)c2cc1Cl [Compound 247, 6-chloro-3-(2-fluoro-3-((2,2,2-trifluoroethyl)sulfonamido)benzyl)-2-oxo-4-(piperazin-1-ylmethyl)-2H-chromen-7-yl dimethylcarbamate]",activity at 0.01 µM,[1],105%
same,"Papp at 4 h, 50 μM",PAMPA (pH 7.4),7 ×10⁻⁶ cm/s
CNS(=O)(=O)Nc1cccc(Cc2c(CN(C)C)c3ccc(OC(=O)N(C)C)cc3oc2=O)c1Br [Compound 248],activity at 0.01 µM,[1],80.9%
same,pERK:tERK (10 nM 2 h A549),"[1]; Phospho-ERK Screen in A549 (KRAS G12S), head 10 nM 2 h, title 10 μM for 2 hours",81
same,solubility kinetic at 4 h,[2]; [5],> 80 µM
same,AUC(0-inf),"[3]; female, mouse",28.3 ng·h/mL
same,half-life,"[3]; female, mouse",312 min
same,AUC(0-t),[3]; [6],19.5 ng·h/mL
same,Cmax,"[3]; female, mouse, read-out: Cmax",8.3 ng/mL
same,Tmax,"[3]; female, mouse, read-out: Tmax",30 min
same,"Papp at 4 h, 50 μM",PAMPA (pH 7.4),60 ×10⁻⁶ cm/s
CCN(C)Cc1c(Cc2cccc(NS(=O)(=O)CC(F)(F)F)c2F)c(=O)oc2cc(OC(=O)N(C)C)c(F)cc12 [Compound 237],activity at 0.01 µM,[1],114%
same,"Papp at 4 h, 50 μM",PAMPA (pH 7.4),50 ×10⁻⁶ cm/s
CNS(=O)(=O)Nc1cccc(Cc2c(CN(C)CCF)c3ccc(OC(=O)N(C)C)cc3oc2=O)c1F [Compound 240],activity at 0.01 µM,[1],66%
same,"A549-pMEK 100 nM, 2 h",[4],34.2
same,solubility kinetic at 4 h,[2]; [5],67 µM
same,AUC(0-t),[3]; [6],290 ng·h/mL
same,Cmax,"[3]; female, mouse, read-out: Cmax",865 ng/mL
same,Tmax,"[3]; female, mouse, read-out: Tmax",4.98 min
same,"Papp at 4 h, 50 μM",PAMPA (pH 7.4),62 ×10⁻⁶ cm/s
CN(C)Cc1c(Cc2cccc(NS(=O)(=O)CC(F)(F)F)c2F)c(=O)oc2cc(OC(=O)N(C)C)c(F)cc12 [Compound 236],activity at 0.01 µM,[1],94.1%
same,"Papp at 4 h, 50 μM",PAMPA (pH 7.4),52 ×10⁻⁶ cm/s
"CNS(=O)(=O)Nc1cccc(Cc2c(CN(C)C)c3c(OC)cc(OC(=O)N(C)C)cc3oc2=O)c1F [Compound 252, 4-((dimethylamino)methyl)-3-(2-fluoro-3-((N-methylsulfamoyl)amino)benzyl)-5-methoxy-2-oxo-2H-chromen-7-yl dimethylcarbamate]","Papp at 4 h, 50 μM",PAMPA (pH 7.4),15 ×10⁻⁶ cm/s
"CCS(=O)(=O)Nc1cccc(Cc2c(CN3CCNCC3)c3ccc(OC(=O)N(C)C)cc3oc2=O)c1Cl [Compound 258, 3-(2-chloro-3-(ethylsulfonamido)benzyl)-2-oxo-4-(piperazin-1-ylmethyl)-2H-chromen-7-yl dimethylcarbamate]","Papp at 4 h, 50 μM",PAMPA (pH 7.4),1 ×10⁻⁶ cm/s
"CNS(=O)(=O)Nc1cccc(Cc2c(CN(C)C)c3c(F)cc(OC(=O)N(C)C)cc3oc2=O)c1F [Compound 244, 4-((dimethylamino)methyl)-5-fluoro-3-(2-fluoro-3-((N-methylsulfamoyl)amino)benzyl)-2-oxo-2H-chromen-7-yl dimethylcarbamate]",activity at 0.01 µM,[1],44.7%
same,"A549-pMEK 100 nM, 2 h",[4],26.1
same,"Papp at 4 h, 50 μM",PAMPA (pH 7.4),8 ×10⁻⁶ cm/s
"CCS(=O)(=O)Nc1cccc(Cc2c(CN(C)C)c3ccc(OC(=O)N(C)C)cc3oc2=O)c1Cl [Compound 249, 3-(2-chloro-3-(ethylsulfonamido)benzyl)-4-((dimethylamino)methyl)-2-oxo-2H-chromen-7-yl dimethylcarbamate]","Papp at 4 h, 50 μM",PAMPA (pH 7.4),64 ×10⁻⁶ cm/s
CNS(=O)(=O)Nc1cccc(Cc2c(CN(C)CC(F)F)c3ccc(OC(=O)N(C)C)cc3oc2=O)c1F [Compound 242],activity at 0.01 µM,[1],69.7%
same,"A549-pMEK 100 nM, 2 h",[4],33.2
same,"Papp at 4 h, 50 μM",PAMPA (pH 7.4),72 ×10⁻⁶ cm/s
CCN(C)Cc1c(Cc2cccc(NS(=O)(=O)CC)c2F)c(=O)oc2cc(OC(=O)N(C)C)c(Cl)cc12 [Compound 166],"A549-pERK (10 nM, 2 h)",[1],60.9
same,solubility kinetic at 4 h,[2],80 µM
same,AUC(0-t),[3],11.8 ng·h/mL
same,Cmax,[3],9.1 ng/mL
same,Tmax,[3],120 min
"CNS(=O)(=O)Nc1cccc(Cc2c(CN(C)C)c3c(C)cc(OC(=O)N(C)C)cc3oc2=O)c1F [Compound 253, 4-((dimethylamino)methyl)-3-(2-fluoro-3-((N-methylsulfamoyl)amino)benzyl)-5-methyl-2-oxo-2H-chromen-7-yl dimethylcarbamate]","Papp at 4 h, 50 μM",PAMPA (pH 7.4),48 ×10⁻⁶ cm/s
CN(C)C(=O)Oc1cc2oc(=O)c(Cc3cccc(NS(=O)(=O)CC(F)(F)F)c3F)c(CN3CCNCC3)c2cc1F [Compound 239],activity at 0.01 µM,[1],96.1%
same,"Papp at 4 h, 50 μM",PAMPA (pH 7.4),0.8 ×10⁻⁶ cm/s
"Nc1ccc(S(=O)(=O)Nc2ccnn2-c2ccccc2)cc1 [Sulfaphenazole, reference compound]",2C9* (Diclofenac),"CYP2C9; 10 μM, human liver microsomes, percent inhibition",101.2
same,"inhibition at 30 min, 10 µM","CYP2C9; human, microsomes, pH 7.4",95.6%
CNS(=O)(=O)Nc1cccc(Cc2c(CN(C)C)c3cc(Cl)c(OC(=O)N(C)C)cc3oc2=O)c1F [Compound 24],"A549-pERK (10 nM, 2 h)",[1],42.4
same,"A549-CRAF BP 100 nM, 2 h",[4],"55.9 (mean, n = 2)"
same,solubility kinetic at 4 h,[2],57 µM
same,AUC(0-t),[3],850.1 ng·h/mL
same,Cmax,[3],422.7 ng/mL
same,Tmax,[3],60 min
CNS(=O)(=O)Nc1cccc(Cc2c(CN(C)c3ccc(Cl)cc3)c3ccc(OC(=O)N(C)C)cc3oc2=O)c1F [Compound 97],"A549-pERK (10 nM, 2 h)",[1],56.5
same,"A549-CRAF BP 100 nM, 2 h",[4],"52.1 (mean, n = 2)"
CNS(=O)(=O)Nc1cccc(Cc2c(CN3CC(OC)C3)c3ccc(OC(=O)N(C)C)cc3oc2=O)c1F [Compound 74],"A549-pERK (10 nM, 2 h)",[1],75.3
same,"A549-CRAF BP 100 nM, 2 h",[4],59.2
CCS(=O)(=O)Nc1cccc(Cc2c(CN(C)CCF)c3ccc(OC(=O)N(C)C)cc3oc2=O)c1F [Compound 241],activity at 0.01 µM,[1],96.6%
same,"Papp at 4 h, 50 μM",PAMPA (pH 7.4),69 ×10⁻⁶ cm/s
